Assays:
Capan-1 cells = test: MTT assay in Capan-1 cells (hTERT+); assay type: cell-based, human; details: Capan-1 cells with Ad-TheoRib-TK
Experimental: (§1) Cells were seeded in a 96 well plate (TPP) for 1 day, and then infected with Ad-TK (an adenoviral vector expressing a TK gene under the control of a CMV promoter), Ad-Rib-TK, Ad-TheoRib-TK, and Ad-LacZ (an adenoviral vector expressing a LacZ gene under the control of a CMV promoter) adenoviruses, respectively. The used media supplemented with GCV and a chemical (theophylline or caffeine) were exchanged with the same new media from every second to fifth day from the day after the virus infection. The HT-29 strain was seeded at a cell number of 3×10^3/well, the HepG2 strain was seeded at a cell number of 3×10^3/well, the Capan-1 strain was seeded at a cell number of 5×10^3/well, and the IMR90 strain was seeded at a cell number of 5×10^3/well. 5 days after the seeding of the strains, CellTiter 96® AQueous ONE Solution Cell Proliferation Assay (Promega) was added to each cell medium so that it amounted to 20% of the total medium, and the 96 wells were treated with 100 μl of resulting cell medium per well, and measured at a wavelength of 490 nm, using a Microplate reader model 550 (BioRad), to observe cell viability of the cells. […]

HT-29 cells = test: MTT assay in HT-29 cells (hTERT+); assay type: cell-based, human; details: HT-29 cells with Ad-TheoRib-TK
Experimental: as §1

HepG2 cells = test: MTT assay in HepG2 cells (hTERT+); assay type: cell-based, human; details: HepG2 cells with Ad-TheoRib-TK
Experimental: as §1

theophylline aptamer = details: cited from earlier work

| Compound | optimum condition for allosterically induced gene expression: concentration (Capan-1 cells) [µM] | optimum condition for allosterically induced gene expression: concentration (HT-29 cells) [µM] | optimum condition for allosterically induced gene expression: concentration (HepG2 cells) [µM] | affinity to the theophylline aptamer, lower than theophylline (theophylline aptamer) [times] |
| --- | --- | --- | --- | --- |
| Nc1nc(O)c2ncn(COC(CO)CO)c2n1 [GCV, ganciclovir] | 50 | 10 | 10 | – |
| Cn1c(=O)c2c(ncn2C)n(C)c1=O [caffeine] | – | – | – | 1000 |
| Cn1c(=O)c2[nH]cnc2n(C)c1=O [theophylline] | 500 | 100 | 10 | – |
